The values below come from patent publication US9624214B2, “Amino-substituted imidazo[1,2-a]pyridinecarboxamides and their use” (BAYER PHARMA AKTIENGESELLSCHAFT, priority 2012, dated 2017).

In this test the target is T1, recombinant guanylate cyclase reporter cell line (Rattus norvegicus, UniProt P19686+P20595).
T1 construct: expressed in transfected cells
T1 sequence (P20595 1-619): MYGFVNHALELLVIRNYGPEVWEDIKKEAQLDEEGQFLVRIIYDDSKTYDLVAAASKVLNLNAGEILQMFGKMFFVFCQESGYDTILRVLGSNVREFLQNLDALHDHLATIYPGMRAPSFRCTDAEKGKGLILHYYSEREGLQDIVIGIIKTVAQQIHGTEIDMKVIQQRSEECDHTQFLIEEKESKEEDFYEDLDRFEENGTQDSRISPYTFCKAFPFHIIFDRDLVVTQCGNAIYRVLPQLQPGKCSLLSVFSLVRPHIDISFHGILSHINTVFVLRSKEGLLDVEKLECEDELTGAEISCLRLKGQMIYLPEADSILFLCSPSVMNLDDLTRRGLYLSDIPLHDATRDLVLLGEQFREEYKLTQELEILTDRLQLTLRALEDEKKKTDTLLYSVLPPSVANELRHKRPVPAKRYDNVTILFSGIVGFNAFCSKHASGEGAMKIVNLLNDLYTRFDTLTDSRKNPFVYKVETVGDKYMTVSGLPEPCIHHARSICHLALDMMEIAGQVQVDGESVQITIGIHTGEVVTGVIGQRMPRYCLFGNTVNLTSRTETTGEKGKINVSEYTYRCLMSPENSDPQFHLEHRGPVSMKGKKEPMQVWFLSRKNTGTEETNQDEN
T1 sequence (P19686 1-690): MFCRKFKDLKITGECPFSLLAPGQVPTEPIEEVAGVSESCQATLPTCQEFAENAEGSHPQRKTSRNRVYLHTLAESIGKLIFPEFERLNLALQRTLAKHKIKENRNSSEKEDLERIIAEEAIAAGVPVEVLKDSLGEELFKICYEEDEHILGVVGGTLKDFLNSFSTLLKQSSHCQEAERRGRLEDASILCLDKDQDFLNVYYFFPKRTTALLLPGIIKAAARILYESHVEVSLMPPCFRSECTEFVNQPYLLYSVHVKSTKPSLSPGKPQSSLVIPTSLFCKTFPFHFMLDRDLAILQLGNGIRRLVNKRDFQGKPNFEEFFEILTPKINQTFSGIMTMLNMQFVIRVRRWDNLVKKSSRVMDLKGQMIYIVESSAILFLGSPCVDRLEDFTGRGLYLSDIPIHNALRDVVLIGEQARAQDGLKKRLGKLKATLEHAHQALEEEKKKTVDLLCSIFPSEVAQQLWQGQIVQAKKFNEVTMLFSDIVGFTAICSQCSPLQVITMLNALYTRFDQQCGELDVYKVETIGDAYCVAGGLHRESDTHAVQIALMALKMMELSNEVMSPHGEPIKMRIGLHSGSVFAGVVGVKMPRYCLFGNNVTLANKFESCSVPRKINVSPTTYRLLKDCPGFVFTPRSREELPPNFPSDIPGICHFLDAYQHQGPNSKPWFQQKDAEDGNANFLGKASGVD
Briefly: B-2. Action on recombinant guanylate cyclase reporter cell line. In kind it is cell-based. The note with it: MEC = minimal effective concentration; in some cases mean values from individual determinations. The gist of the method:
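Each compound is applied to a cell line engineered with a reporter for recombinant guanylate cyclase. The minimal effective concentration is then noted, in part as a mean across separate determinations.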
Consider `Cc1cc(OCc2c(F)cccc2F)c2nc(C)c(C(=O)NCC(C)(N)CCC(F)(F)F)n2c1` (single isomer, unassigned; enantiomer b) [Example 409, ent-N-(2-amino-5,5,5-trifluoro-2-methylpentyl)-8-[(2,6-difluorobenzyl)oxy]-2,6-dimethylimidazo[1,2-a]pyridine-3-carboxamide (Enantiomer B)], for which the MEC is 0.03 µM.
`CCC(C)(N)CNC(=O)c1c(C)nc2c(OCc3c(F)ccc(C4CC4)c3F)cc(C)cn12` (stereo not drawn) [Example 363, ent-N-(2-amino-2-methylbutyl)-8-[(3-cyclopropyl-2,6-difluorobenzyl)oxy]-2,6 dimethylimidazo[1,2-a]pyridine-3-carboxamide]: the MEC was found to be 3.00 µM.
In the case of `Cc1nc2c(OCc3c(F)cccc3F)cccn2c1C(=O)NC(C)[C@@H](C)N` (single isomer, unassigned) [Example 176], the MEC was determined as 1.00 µM.
Take `Cc1nc2c(OCC3CCCCC3)cccn2c1C(=O)NC(CN)c1ccc(Cl)cc1` (racemic) [Example 43, rac-N-[2-Amino-1-(4-chlorophenyl)ethyl]-8-(cyclohexylmethoxy)-2-methylimidazo[1,2-a]-pyridine-3-carboxamide]: the MEC was 1.00 µM.
The same measure for `CCCC(C)(N)CNC(=O)c1c(C)nc2c(OCc3c(F)cccc3F)cc(Cl)cn12` (single isomer, unassigned) [Example 246, ent-N-(2-Amino-2-methylpentyl)-6-chloro-8-[(2,6-difluorobenzyl)oxy]-2-methylimidazo[1,2-a]-pyridine-3-carboxamide]: 0.30 µM.
With `Cc1cc(OCc2c(F)cccc2F)c2nc(C)c(C(=O)NCC(C)(N)C3CC3)n2c1` (single isomer, unassigned; enantiomer b) [Example 261, ent-N-(2-Amino-2-cyclopropylpropyl)-8-[(2,6-difluorobenzyl)oxy]-2,6-dimethylimidazo[1,2-a]-pyridine-3-carboxamide (Enantiomer B)], the MEC stood at 0.10 µM.
Take `Cc1cc(OCc2c(F)cccc2F)c2nc(C)c(C(=O)N[C@H]3C[C@H]4CN(C)CCN4C3)n2c1` [Example 314, 8-[(2,6-Difluorobenzyl)oxy]-2,6-dimethyl-N-[(7S,8aS)-2-methyloctahydropyrrolo[1,2-a]pyrazin-7-yl]imidazo[1,2-a]pyridine-3-carboxamide]: the MEC was found to be 0.30 µM.
The same measure for `Cc1nc2c(OCc3c(F)cccc3F)cccn2c1C(=O)NC(CN)c1ccc(F)cc1` (single isomer, unassigned; enantiomer b) [Example 10, ent-N-[2-Amino-1-(4-fluorophenyl)ethyl]-8-[(2,6-difluorobenzyl)oxy]-2-methylimidazo[1,2-a]-pyridine-3-carboxamide (Enantiomer B)]: 0.30 µM.
Regarding `CCCC(C)(N)CNC(=O)c1c(C)nc2c(OCc3cccc(C)c3F)cc(C)cn12` (racemic) [Example 317, rac-N-(2-amino-2-methylpentyl)-8-[(2-fluoro-3-methylbenzyl)oxy]-2,6-dimethylimidazo[1,2-a]pyridine-3-carboxamide], the MEC was found to be 0.30 µM.
In the case of `Cc1cc(OCc2c(F)cccc2F)c2nc(C)c(C(=O)NC3CCC3N)n2c1` (single isomer, unassigned; enantiomer b) [Example 329, ent-N-(2-aminocyclobutyl)-8-[(2,6-difluorobenzyl)oxy]-2,6-dimethylimidazo[1,2-a]pyridine-3-carboxamide (Enantiomer B)], the MEC was found to be 0.30 µM.
With `Cc1cc(OCc2c(F)cccc2F)c2nc(C)c(C(=O)NC(CN)c3csc4ccccc34)n2c1` (racemic) [Example 389, rac-N-[2-amino-1-(1-benzothiophen-3-yl)ethyl]-8-[(2,6-difluorobenzyl)oxy]-2,6-dimethylimidazo[1,2-a]pyridine-3-carboxamide], the MEC was determined as 1.00 µM.
